For one assay, the target named is T1, GST-JAK2(808-1132) (Homo sapiens, UniProt O60674).
T1 construct: GST-JAK2(808-1132); purchased Invitrogen (Carlsbad, USA) #4288
Description: JAK2 kinase assay (Caliper mobility shift, LabChip 3000). In kind it is biochemical. A digest of the protocol:
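Recombinant GST-JAK2(808-1132) kinase domain with FITC-labelled JAK3tide peptide substrate and ATP; 60 min at 30 °C, EDTA stop. Substrate/product ratio read by microfluidic mobility shift; compounds at 8 final concentrations, 10 to 0.003 μM.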

In assay [1] the test system is JAK1/JAK2-dependent nuclear translocation of STAT1-GFP in HT1080 fibrosarcoma cells. In words: STAT1 nuclear translocation assay (Cellomics), IFN-γ stimulated HT1080 STAT1-GFP cells. In kind it is cell-based. To be noted: Homo sapiens, HT-1080, STAT1 translocation pathway. A digest of the protocol:
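HT1080 cells stably expressing STAT1-GFP, pre-treated 30 min with compound (10 μM–0.003 μM, 0.1% DMSO), then stimulated 2 h with 100 ng/ml IFN-γ, fixed and Hoechst-stained. Nuclear-cytoplasmic GFP differential imaged over ≥1000 cells/well, normalised to unstimulated and DMSO-stimulated wells for IC50.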

Structures are written as SMILES. Bounds are passed on as bounds.

One may read the IC50 as the midpoint of a concentration-inhibition curve.

T1 sequence (O60674 808-1132): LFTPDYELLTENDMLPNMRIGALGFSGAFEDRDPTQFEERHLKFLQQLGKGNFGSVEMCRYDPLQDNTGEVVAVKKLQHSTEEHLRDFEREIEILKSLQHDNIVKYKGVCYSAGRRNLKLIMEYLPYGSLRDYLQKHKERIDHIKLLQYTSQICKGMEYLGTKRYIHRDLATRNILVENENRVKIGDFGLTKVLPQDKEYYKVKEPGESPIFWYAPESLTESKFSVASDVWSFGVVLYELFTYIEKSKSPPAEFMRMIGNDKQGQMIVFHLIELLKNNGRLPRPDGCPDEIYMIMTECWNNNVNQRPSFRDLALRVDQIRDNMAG

As to `O=C(c1c(F)cc(-n2ccc3cnc(Nc4ccncn4)nc32)cc1F)N1CCOCC1` [Example 218, {2,6-Difluoro-4-[2-(pyrimidin-4-ylamino)-pyrrolo[2,3-d]pyrimidin-7-yl]-phenyl}-morpholin-4-yl-methanone], the half-maximal inhibitory concentration (IC50) on GST-JAK2(808-1132) was 1050 nM; in assay [1] it was 10000 nM.

As for `Cc1ccc(Nc2ncc3ccn(-c4cc(F)c(C(=O)N5CCOCC5)c(F)c4)c3n2)cn1` [Example 219, {2,6-Difluoro-4-[2-(6-methyl-pyridin-3-ylamino)-pyrrolo[2,3-d]pyrimidin-7-yl]-phenyl}-morpholin-4-yl-methanone], the IC50 at GST-JAK2(808-1132) was determined as 7.7 nM; in assay [1], 518 nM.

For `COc1ccc(Nc2ncc3ccn(-c4cc(F)c(C(=O)N5CCOCC5)c(F)c4)c3n2)cn1` [Example 220], the IC50 at GST-JAK2(808-1132) came to 11 nM; in assay [1], 880 nM.

`CN1CCN(c2ccc(Nc3ncc4ccn(-c5cc(F)c(C(=O)N6CCOCC6)c(F)c5)c4n3)cn2)CC1` [Example 221]: the IC50 came out at 4.7 nM at GST-JAK2(808-1132) and 360 nM in assay [1].

On to `Cc1ccc(Nc2ncc3ccn(-c4ccc(C(=O)N5CCOCC5)c(F)c4)c3n2)cn1` [Example 223], for which the results for the IC50 (at GST-JAK2(808-1132); in assay [1]) were 9.2 nM and 455 nM, respectively.

Regarding `O=C(c1ccc(-n2ccc3cnc(Nc4cccnc4)nc32)cc1F)N1CCOCC1` [Example 224, {2-Fluoro-4-[2-(pyridin-3-ylamino)-pyrrolo[2,3-d]pyrimidin-7-yl]-phenyl}-morpholin-4-yl-methanone], the IC50 came out at 8.5 nM at GST-JAK2(808-1132) and 1080 nM in assay [1].

Regarding `COc1ccc(Nc2ncc3ccn(-c4ccc(C(=O)N5CCOCC5)c(F)c4)c3n2)cn1` [Example 225, {2-Fluoro-4-[2-(6-methoxy-pyridin-3-ylamino)-pyrrolo[2,3-d]pyrimidin-7-yl]-phenyl}-morpholin-4-yl-methanone], the results for the 50% inhibitory concentration (IC50) (at GST-JAK2(808-1132); in assay [1]) were 7.4 nM and 434 nM, respectively.

On to `CC(C)Oc1ccc(Nc2ncc3ccn(-c4ccc(C(=O)N5CCOCC5)c(F)c4)c3n2)cn1` [Example 226, {2-Fluoro-4-[2-(6-isopropoxy-pyridin-3-ylamino)-pyrrolo[2,3-d]pyrimidin-7-yl]-phenyl}-morpholin-4-yl-methanone], for which the IC50 at GST-JAK2(808-1132) came to 10.5 nM; in assay [1], 666 nM.

Regarding `Cc1ccc(Nc2ncc3ccn(-c4ccc(S(C)(=O)=O)cc4)c3n2)cn1` [Example 229, [7-(4-Methanesulfonyl-phenyl)-7H-pyrrolo[2,3-d]pyrimidin-2-yl]-(6-methyl-pyridin-3-yl)-amine], the IC50 on GST-JAK2(808-1132) is 21 nM; in assay [1], 1580 nM.

`COc1ccc(Nc2ncc3ccn(-c4ccc(S(C)(=O)=O)cc4)c3n2)cn1` [Example 230, [7-(4-Methanesulfonyl-phenyl)-7H-pyrrolo[2,3-d]pyrimidin-2-yl]-(6-methoxy-pyridin-3-yl)-amine]: the concentration for half-maximal inhibition (IC50) on GST-JAK2(808-1132) is 20.5 nM; in assay [1], 2480 nM.

For `CC(C)Oc1ccc(Nc2ncc3ccn(-c4ccc(C(=O)N5CCOCC5)cc4)c3n2)cc1` [Example 231, {4-[2-(4-Isopropoxy-phenylamino)-pyrrolo[2,3-d]pyrimidin-7-yl]-phenyl}-morpholin-4-yl-methanone], the IC50 at GST-JAK2(808-1132) was found to be 3.2 nM; in assay [1], 258 nM.

As for `CC(C)Oc1ccc(Nc2ncc3ccn(-c4ccc(C(=O)N5CCOCC5)cc4)c3n2)cn1` [Example 232], the results for the half-inhibitory concentration (IC50) (at GST-JAK2(808-1132); in assay [1]) were 19 nM and 1160 nM, respectively.

With `Cc1ccc(Nc2ncc3ccn(-c4ccc(C(=O)N5CCOCC5)cc4)c3n2)cc1F` [Example 233, {4-[2-(3-Fluoro-4-methyl-phenylamino)-pyrrolo[2,3-d]pyrimidin-7-yl]-phenyl}-morpholin-4-yl-methanone], the IC50 at GST-JAK2(808-1132) is 6.4 nM; in assay [1], 1180 nM.

Take `COc1ccc(Nc2ncc3ccn(-c4ccc(C(=O)N5CCOCC5)cc4)c3n2)cn1` [Example 234, {4-[2-(6-Methoxy-pyridin-3-ylamino)-pyrrolo[2,3-d]pyrimidin-7-yl]-phenyl}-morpholin-4-yl-methanone]: the concentration for half-maximal inhibition (IC50) was found to be 8.1 nM on GST-JAK2(808-1132) and 910 nM in assay [1].

With `N#Cc1ccc(Nc2ncc3ccn(-c4ccc(C(=O)N5CCOCC5)cc4)c3n2)cc1` [Example 237, 4-{7-[4-(Morpholine-4-carbonyl)-phenyl]-7H-pyrrolo[2,3-d]pyrimidin-2-ylamino}-benzonitrile], the IC50 on GST-JAK2(808-1132) was 7 nM; in assay [1], 2560 nM.

For `COCc1ccc(Nc2ncc3ccn(-c4ccc(C(=O)N5CCOCC5)cc4)c3n2)cc1` [Example 239, {4-[2-(4-Methoxymethyl-phenylamino)-pyrrolo[2,3-d]pyrimidin-7-yl]-phenyl}-morpholin-4-yl-methanone], the concentration for half-maximal inhibition (IC50) at GST-JAK2(808-1132) turned out to be 3.9 nM; in assay [1], 660 nM.

For `COc1cc(Nc2ncc3ccn(-c4ccc(C(=O)N5CCOCC5)cc4)c3n2)ccc1C` [Example 240, {4-[2-(3-Methoxy-4-methyl-phenylamino)-pyrrolo[2,3-d]pyrimidin-7-yl]-phenyl}-morpholin-4-yl-methanone], the IC50 stood at 5.2 nM on GST-JAK2(808-1132) and 730 nM in assay [1].

Take `Cn1cc(Nc2ncc3ccn(-c4cc(F)c(C(=O)N5CCOCC5)c(F)c4)c3n2)cn1` [Example 241, {2,6-Difluoro-4-[2-(1-methyl-1H-pyrazol-4-ylamino)-pyrrolo[2,3-d]pyrimidin-7-yl]-phenyl}-morpholin-4-yl-methanone]: the IC50 at GST-JAK2(808-1132) was found to be 5.4 nM; in assay [1], 370 nM.

For the compound `Cc1cncc(Nc2ncc3ccn(-c4cc(F)c(C(=O)N5CCOCC5)c(F)c4)c3n2)c1` [Example 242, {2,6-Difluoro-4-[2-(5-methyl-pyridin-3-ylamino)-pyrrolo[2,3-d]pyrimidin-7-yl]-phenyl}-morpholin-4-yl-methanone], the IC50 on GST-JAK2(808-1132) was 4.3 nM; in assay [1], 355 nM.

`CN1CCN(c2cc(Nc3ncc4ccn(-c5cc(F)c(C(=O)N6CCOCC6)c(F)c5)c4n3)ccn2)CC1` [Example 243, (2,6-Difluoro-4-{2-[2-(4-methyl-piperazin-1-yl)-pyridin-4-ylamino]-pyrrolo[2,3-d]pyrimidin-7-yl}-phenyl)-morpholin-4-yl-methanone]: the IC50 at GST-JAK2(808-1132) was < 3 nM; in assay [1], 225 nM.

Turning to `CN1CCN(Cc2ccc(Nc3ncc4ccn(-c5ccc(S(C)(=O)=O)c(F)c5)c4n3)cc2)CC1` [Example 244, [7-(3-Fluoro-4-methanesulfonyl-phenyl)-7H-pyrrolo[2,3-d]pyrimidin-2-yl]-[4-(4-methyl-piperazin-1-ylmethyl)-phenyl]-amine], the IC50 was < 3 nM on GST-JAK2(808-1132) and 430 nM in assay [1].

For `CN1CCN(Cc2cccc(Nc3ncc4ccn(-c5cc(F)c(C(=O)N6CCOCC6)c(F)c5)c4n3)c2)CC1` [Example 245, (2,6-Difluoro-4-{2-[3-(4-methyl-piperazin-1-ylmethyl)-phenylamino]-pyrrolo[2,3-d]pyrimidin-7-yl}-phenyl)-morpholin-4-yl-methanone], the concentration for half-maximal inhibition (IC50) on GST-JAK2(808-1132) was < 3 nM; in assay [1] it was 430 nM.

As to `O=C(c1c(F)cc(-n2ccc3cnc(Nc4nccs4)nc32)cc1F)N1CCOCC1` [Example 246, {2,6-Difluoro-4-[2-(thiazol-2-ylamino)-pyrrolo[2,3-d]pyrimidin-7-yl]-phenyl}-morpholin-4-yl-methanone], the IC50 on GST-JAK2(808-1132) was found to be 28 nM; in assay [1], 4000 nM.

For the origin of these results see patent US8420657B2 (Novartis AG, priority 2008, dated 2013).
